Where two headings read alike, the source gives them in different places.
Biological target: T1, Jack Bean Urease (Canavalia ensiformis, UniProt P07374)
T1 construct: purchased Millipore Sigma U1500
Assay type: biochemical
Conditions: for Urease inhibition (in words): 0.1 g in synthetic urine with urease
Method: To test the efficiency of different Green Tea Extracts, three different samples were tested: • Sample 1′: pure EGCG: Cas. […] 84650-60-2, EC no. […] The test procedure per sample and for a reference without Green Tea Extract was the following, all steps were performed at ambient lab temperature (23±1° C.) and atmospheric pressure:
Synthetic Urine is prepared by dissolving 2% w/w urea, 0.9% w/w sodium chloride, 0.11% w/w magnesium sulfate monohydrate, 0.079% w/w calcium chloride monohydrate in deionized water. Urease stock solution (23.5 U/ml) is made by dissolving Jack Bean Urease (Catalog number U1500, Millipore Sigma, St. Louis, MO, USA, or equivalent) in deionized water.
67.5 ml of Synthetic urine were added to a beaker and the pH of the Synthetic urine (Urine pH) was determined analogously to the Urease Activity test method described above (Urine pH).
0.1 g of the corresponding Green Tea Extract—except for the reference sample—were added to the beaker and the solution stirred for 15 min. Afterwards the pH of the solution is determined.
7.5 ml of the Urease stock solution were added and the pH was monitored, while the stirring of the solution was maintained.
From the values, the difference in pH mediated by Urease was calculated from the difference of the pH of the Synthetic urine and the final pH determined after addition of the Urease stock.

T1 sequence (P07374 whole entry, looked up): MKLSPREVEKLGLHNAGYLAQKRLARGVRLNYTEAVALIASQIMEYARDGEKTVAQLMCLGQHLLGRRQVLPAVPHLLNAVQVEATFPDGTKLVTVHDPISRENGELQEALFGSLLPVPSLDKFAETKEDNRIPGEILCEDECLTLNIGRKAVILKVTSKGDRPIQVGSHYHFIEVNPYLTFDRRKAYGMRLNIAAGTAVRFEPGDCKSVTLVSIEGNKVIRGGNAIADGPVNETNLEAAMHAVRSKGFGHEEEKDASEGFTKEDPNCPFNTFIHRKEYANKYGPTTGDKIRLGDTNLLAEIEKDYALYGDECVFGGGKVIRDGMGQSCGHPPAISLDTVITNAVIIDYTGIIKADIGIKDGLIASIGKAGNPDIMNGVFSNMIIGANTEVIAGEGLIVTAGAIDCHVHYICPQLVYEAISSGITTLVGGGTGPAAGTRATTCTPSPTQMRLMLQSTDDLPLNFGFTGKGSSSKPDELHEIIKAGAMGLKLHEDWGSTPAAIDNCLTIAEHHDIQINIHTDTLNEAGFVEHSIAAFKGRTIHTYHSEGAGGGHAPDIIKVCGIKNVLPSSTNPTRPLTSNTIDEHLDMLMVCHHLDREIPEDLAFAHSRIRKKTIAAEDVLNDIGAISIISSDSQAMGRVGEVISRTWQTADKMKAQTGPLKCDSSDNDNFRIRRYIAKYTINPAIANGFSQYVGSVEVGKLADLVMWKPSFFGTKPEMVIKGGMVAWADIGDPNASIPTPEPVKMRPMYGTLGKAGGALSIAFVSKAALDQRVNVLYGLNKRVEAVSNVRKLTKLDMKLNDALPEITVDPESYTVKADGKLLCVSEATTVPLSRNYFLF

## O=C(O[C@@H]1Cc2c(O)cc(O)cc2O[C@@H]1c1cc(O)c(O)c(O)c1)c1cc(O)c(O)c(O)c1 [Sample 1′, Epigallocatechin gallate]
0.1 g in 67.5 ml Synthetic urine, stirred 15 min, before urease addition
  Green Tea pH: 5.7
  Urease inhibition (in words): inhibit Urease
Listed as EGCG
  Urease inhibition (in words): less efficient in its pure form
After adding 7.5 ml Urease stock solution (23.5 U/ml), pH stabilized (typically 15 to 30 min)
  End pH: 7.7
Final pH minus pH of the Synthetic urine
  pH difference: 1.2

From US20230363954A1, “METHOD FOR MAKING AN ABSORBENT ARTICLE AND ABSORBENT ARTICLE” (The Procter & Gamble Company, priority 2022, published 2023)
